Values quoted from earlier work, collected in patent publication EP1204793B1, “STABLE SILICONE OIL EMULSION COMPOSITION, ARTICLE OF MANUFACTURE, AND METHOD OF FABRIC WRINKLE CONTROL” (THE PROCTER & GAMBLE COMPANY, priority 1999, dated 2001).
Structures can show the parent of a compound that is named as a salt.

Row | solubility in water | Structure (SMILES)
1 | about 1.8% | [H]/N=C(\N/C(=N/[H])NCCCCCCNC(=N)NC(=N)Nc1ccc(Cl)cc1)Nc1ccc(Cl)cc1 [diacetate salt, 1,1'-hexamethylene bis(5-(p-chlorophenyl)biguanide)]
2 | about 70% | [H]/N=C(\N/C(=N/[H])NCCCCCCNC(=N)NC(=N)Nc1ccc(Cl)cc1)Nc1ccc(Cl)cc1 [digluconate salt, 1,1'-hexamethylene bis(5-(p-chlorophenyl)biguanide)]
